US20260137711A1, “COMBINATION THERAPY FOR CANCER” (NATIONAL UNIVERSITY OF IRELAND, GALWAY, priority 2022, published 2026)

Assays:
[1] = system: MCF10A cells; assay: Long-term cell proliferation assay, crystal violet staining; assay type: cell-based, human; conditions: 7 days
Method: (a and b) MCF10A cells were plated at equal low density and then either mock treated or treated with 31 nM BI-1347, in the presence or absence of XL413 at a doses of (a) 1.25 μM or (b) 10 μM over a 7 day period. Representative images of crystal violet-stained cells are shown alongside quantitation of crystal violet intensity normalised to the untreated control.
Briefly, MCF10A cells were mock-treated or treated in the continued presence of a dual-specificity CDK8/CDK19 inhibitor, BI-1347, in the presence or absence of XL413 at two different concentrations (1.25 μM and 10 μM) for a 7-day period. Relative cell proliferation was estimated by staining cells with crystal violet and measuring staining intensities. […] Importantly the addition of BI-1347 to XL413 caused a further reduction in cell number with staining intensity decreasing by 70% and 95% respectively.
MCF10A cells were seeded at 4,000 cells per well of a 6 well plate and after 24 hours were treated with inhibitors before being incubated for 7 days at 37° C. with 5% CO2. Media was removed from the cells which were then washed with PBS and air dried before being fixed with 100% methanol for 1 hour. Following removal of methanol the plates were air-dried, stained with crystal violet staining solution (0.2% crystal violet, 25% methanol) for 1 hour at room temperature, washed with ddH2O and air-dried. Plates were scanned using a HP Scanjet 4050, to generate images of crystal violet stained cells, and crystal violet staining intensity was acquired using the Odyssey infrared imaging system and Image Studio software (LI-COR Biosciences).

[2] = system: MCF10A EditR cells; assay: Pooled genome-wide CRISPR/Cas9 screen with XL413 (cell proliferation, sgRNA abundance, MAGeCK beta scores); assay type: cell-based, human; conditions: for XL413 beta score: 1.25 μM XL413, day 0 to day 24; for Differential beta score (Treatment − Control): XL413-treated minus untreated
Method: Supplemental FIG. 1: CRISPR/Cas9 screen: Cell proliferation curves, summary of sgRNA coverage, and genes of interest identified (a-c) Proliferation curves of MCF10A EditR cells expressing sgRNAs from CRISPR library modules I, II and III in the absence (untreated) or presence of 1.25 μM XL413. Data is from three independent counts of each sample ±standard deviation (SD). (d) DNA extracted from samples of the CRISPR/Cas9 screen, which were harvested on day 0 and after 20 or 24 days of growth in the absence (untreated) or presence of 1.25 μM XL413, respectively, was analysed by next generation sequencing. Sequence data was mapped to a CELLECTA genome-wide sgRNA reference library using the MAGeCKFlute pipeline. (d) The table summarises the total and missing number of sgRNAs, the calculated % sgRNA coverage and the number of missing genes.
A genome-wide CRIPSR/Cas9 loss of function screen identifies genes that affect proliferation rate in response to a CDC7 inhibitor In order to identify genes that change the rate of proliferation when DNA synthesis is mildly limited by CDC7 inhibition, we performed a CRISPR/Cas9 genome-wide knockout screen as outlined in FIG. 1a. Briefly, MCF10A EditR cells that stably express Cas9 were transduced with a lentiviral-sgRNA library targeting approximately 19,000 coding genes and then were either untreated or treated with 1.25 μM of selective ATP competitive CDC7 inhibitor, XL413 (Koltun et al., 2012). […] Next generation sequencing was then used to determine sgRNA abundance at day 0, day 20 untreated and day 24 XL413 treated cells. […] CRISPR/Cas9-mediated loss of function of genes involved in supporting proliferation in untreated cells or in response to CDC7 inhibition is expected to result in a decreased relative abundance of the corresponding sgRNAs in the cell population. […] When the genes were ranked according to the magnitude of the effect, CDK8, a gene that expresses a component of the CDK8/CDK19-CCNC-MED12-MED 13 mediator complex kinase-module (Dannappel et al., 2019; Fant and Taatjes, 2019; Menzl et al., 2019), came out as the top hit (FIG. 1b and Table 1, ranked 19012 out of 19012 genes).
MCF10A EditR cells (120×10^6 per module) were transduced with individual modules (Modules I, II and III) in the presence of 5 µg/ml polybrene at a Multiplicity of Infection (MoI) of 0.4 achieving ˜600-fold guide representation. After 24 hours, transduced cells were harvested, replated and selected with puromycin ([…]) for 6 days. Puromycin resistant cells were harvested and a sample of ˜30×10^6 cells taken for analysis by next generation sequencing (NGS) at the start of the screen (day 0). The remaining puromycin resistant cells from each module were cultured independently from each other in untreated and XL413 treated ([…]) experimental branches. Throughout the screen cell proliferation and viability were determined by cell counting on a LunaII automated cell counter (Logos Biosystems) using trypan blue exclusion. Cells were cultured, harvested, reseeded and retreated every 4 days in order to maintain ˜600-fold guide representation. Finally at day 20 for the untreated branch and at day 24 for the XL413-treated branche, cells were harvested and a sample of ˜30×10^6 cells taken for analysis by NGS.
FASTQ files obtained by NGS were analysed using the MAGeCKFlute pipeline (Wang et al., 2019) as outlined below. MAGeCK was used to perform adaptor trimming, mapping of trimmed sgRNAs and associated sequencing reads to the CELLECTA sgRNA reference library, and a quality control assessment of the sequencing quality and screen data. Following quality control inspection, sgRNA read count data from the day 0 vs day 20 untreated and day 0 vs day 24 XL413-treated (1.25 μM) conditions were modelled using a negative-binomial distribution by MAGeCK-MLE to calculate a beta score for each targeted gene. Negative control sgRNAs in the CELLECTA library were used by MAGeCK-MLE to normalize the read counts between samples. […]

Cl.O=c1[nH]c([C@@H]2CCCN2)nc2c1oc1ccc(Cl)cc12 [XL413]
relative intensity reduction (crystal violet) ([1]; 1.25 μM XL413 alone): ~15% | relative intensity reduction (crystal violet) ([1]; 10 μM XL413 alone): 70% | cell proliferation over the course of the screen ([2]; 1.25 μM XL413, cells expressing sgRNA library): only mildly suppressed | XL413 beta score ([2]; gene CCNC targeted by sgRNAs): −1.0759 | Differential beta score (Treatment − Control) ([2]; gene CCNC targeted by sgRNAs): −0.3602 | XL413 beta score ([2]; gene CDK8 targeted by sgRNAs): −1.6094 | Differential beta score (Treatment − Control) ([2]; gene CDK8 targeted by sgRNAs): −1.4391 | XL413 beta score ([2]; gene CDK19 targeted by sgRNAs): −0.2393 | Differential beta score (Treatment − Control) ([2]; gene CDK19 targeted by sgRNAs): 0.0034 | XL413 beta score ([2]; gene MED12 targeted by sgRNAs): −0.8276 | Differential beta score (Treatment − Control) ([2]; gene MED12 targeted by sgRNAs): 0.0928 | XL413 beta score ([2]; gene MED13 targeted by sgRNAs): 0.0939 | Differential beta score (Treatment − Control) ([2]; gene MED13 targeted by sgRNAs): 0.0062 | XL413 beta score ([2]; gene RIF1 targeted by sgRNAs): −0.0162 | Differential beta score (Treatment − Control) ([2]; gene RIF1 targeted by sgRNAs): 0.7442
